Key:
[1] = test system: renal mesangial cells; assay: NO production by IFN-γ/LPS-stimulated renal mesangial cells (Greiss reaction); type: cell-based, rat; conditions: for inhibition of NO production, time course: 24-72 hr; for Emax at 5 µg/mL: Rattus norvegicus, Mesangial cell, 5 μg/mL, 48 hr, P<0.01, read-out: inhibition of NO production, maximal effect
Source text: The use of IFN-γ to induce renal injury is a model of glomerulonephritis known in the art. Glomerulonephritis is characterized by increased production of NO.

[2] = test system: collagenase; conditions: cited from earlier work
[3] = test system: iNOS expression in macrophages; conditions: Nathan et al. 1994, Vodovotz et al. 1993; cited from earlier work
[4] = test system: iNOS; assay: iNOS activity (L-arginine-to-L-citrulline) in cell-free extracts of cells treated with modulator before LPS; type: cell-based, murine; conditions: positive control
Experimental: Murine macrophage cells (RAW 264.7) were incubated with 20-80 μg/mL doxycycline or minocycline, 10 μM hydrocortisone (Sigma Chemical Co., St. Louis, Mo.), or 75 μM L-NMMA for 1-2 h, followed by addition of LPS at 100 ng/mL and incubation for 16-18 h. Cell-free extracts were prepared at the end of each time period. Specific activity of iNOS was determined in the cell-free extracts by monitoring the conversion of L-[^3 H]-arginine to L-[^3 H]-citrulline as described by Amin et al. (1995b) and Vyas et al. (1996).
Cell-free extracts were prepared as follows: Following induction by incubation with LPS, the cells were pelleted at 4° C. and resuspended in Tris buffer (10 mM, pH 7.4) containing 10 μg/mL each chymostatin, antipain, leupeptin and pepstatin, 1 mM DTT and 1 mM PMSF. Cells were lysed in a Polytron PT 1200 homogenizer (Kinematica AG, Switzerland) after 3 cycles of rapid freeze-thawing. The lysate was centrifuged at 16,000 rpm for 60 min at 4° C., and the supernatants were used as cell-free extracts.
The protein in the extracts was measured by BCA assay reagent using BSA as standard (Smith et al. 1985). The reaction mixture for iNOS assay consists of Tris 50 mM (pH 7.8); BSA 1 mg/mL; DTT 1 mM; CaCl2, 2 mM; FAD 10 μM; BH4 10,μM; L-arginine 30 μM; NADPH 1 mM. The reaction mixture was spiked with 1μL (250 nM) of L-[^3 H]-arginine (Dupont NEN, Boston, Mass.) (1 mCi/mL=37.0 MBq/mL). After 20 min the assays were terminated by heating the reaction mixture at 90° C. for 5 min. Ten microiters (≈100,000 cpm) of the supernatant was spotted on activated AVICEL TLC plates (Analtech, Newark, Del.). The TLC plates were developed in a solvent system consisting of ethanol:water:ammonia (80:16:4). Quantitation of the spot for L-[^3 H]-citrulline was performed by a Bioscan System 200 Imaging Scanner.

[5] = test system: 133 kD iNOS; assay: iNOS protein expression in LPS-activated RAW 264.7 cells (Western blot); type: cell-based, murine; conditions: 10 μM, positive control
Experimental: RAW 264.7 cells were activated with 100 ng/mL LPS for 16-18 h, with and without doxycycline or minocycline (20-80 μg/mL) or with hydrocortisone (10 μM). Cell-free extracts were prepared as described above. The extract s were analyzed for 133 kD iNOS by Western blotting, using specific anti-iNOS antibodies.
Equal amounts of protein (25-50 μg) estimated by BCA reagent (Pierce, Rockford, Ill.) were loaded onto SDS-PAGE gels and stained to verify the concentrations of various protein fractions by examining the intensities of the protein bands on the gels. Western blot analysis was carried out from the same cell extracts. The Western-blotted membrane was probed with a specific anti-murine iNOS monoclonal antibody (Transduction Laboratories, Lexington, Ky.), as specified by the supplier. The same blot was also probed with an anti-actin antibody generously provided by Dr. James L. Lessard (Children's Hospital Medical Center, Cincinnati, Ohio). The blots were developed using the ECL Western blot system (Amersham, Arlington Heights, Ill.). Quantitation of the bands was performed using a densitometer from Molecular Dynamics (Sunnyvale, Calif.). FIG. 5 is representative.

[6] = test system: iNOS mRNA; assay: iNOS mRNA expression in LPS-stimulated RAW 264.7 cells (RT-PCR); type: cell-based, murine; conditions: Mus musculus, RAW264.7, read-out: decrease of iNOS mRNA
Experimental: Doxycycline and minocycline may suppress iNOS before the synthesis of the enzyme, leading to inhibition of iNOS protein expression, specific activity and accumulation of nitrite. […] Therefore, to determine the level at which tetracycline inhibited iNOS protein expression, RAW 264.7 cells treated with LPS in the presence or absence of doxycycline and minocycline were analyzed for iNOS mRNA by semi-quantitative RT-PCR.
The presence of iNOS and β-actin mRNA in cells was analyzed by reverse transcription (RT) of total RNA followed by PCR amplification of the cDNA. The sense and antisense oligonucleotides for iNOS were, respectively, 5'-ACGGAGAAGCTTAGATCTGGAGCAGAAGTG-3'(142 to 171) (SEQ ID NO:1) and 5'-CTGCAGGTTGGACCACTGGATCCTGCCGAT-3' (767 to 796) (SEQ ID NO:2). The sense and antisense primers for β-actin were 5'-TCCTTCGTTGCCGGTCCACA-3' (44 to 63) (SEQ ID NO:3) and 5'-CGTCTCCGGAGTCCATCACA-3' (534 to 552) (SEQ ID NO:4), respectively. The predicted PCR product of the iNOS cDNA was 654 bp; that of the β-actin cDNA was 508 bp. The polymerase chain reaction was carried out in an automated DNA thermal cycle (Perkin-Elmer Cetus, Norwalk, Conn.). The total RNA was extracted using TRI-Reagent (MRC Inc., Cincinnati, Ohio). The cDNA was prepared from equal amounts (1-5 μg) of total RNA using a SuperScript™ RNase H Reverse Transcriptase (Gibco BRL, Gaithersburg, Md.). An equal amount of the cDNA was used to amplify the mRNA by PCR. PCR amplification was performed in 50 μL solution containing 1.5 mM MgCl2, 500 ng iNOS primer, 100 ng β-actin primer, 0.2 mM of each dNTP, 2.5 units of Taq DNA polymerase (Gibco). The cycle conditions for amplification of cDNA were 1 min at 94° C., 1-2 min at 55° C. and 3 min at 72° C. for 30 cycles for both iNOS and β-actin. The PCR product was analyzed by electrophoresis on 1.0% agarose gels.
RT-PCR analysis of iNOS and βactin mRNA expression in RAW 264.7 cells was carried out after stimulation with LPS±doxycycline or minocycline. […] Equal amounts of RNA were analyzed for iNOS and β-actin expression as described above.

[7] = test system: iNOS mRNA; assay: iNOS mRNA expression in LPS-stimulated RAW cells (Northern blot); type: cell-based, murine; conditions: Mus musculus
Experimental: Northern blot analysis of the iNOS MRNA expressed by the cells was then carried out to evaluate precisely the effect of iNOS expression in the presence of doxycycline and minocycline. The probes again were the iNOS and β-actin CDNA probes described above.
In this case, total RNA was isolated using TRI Reagent (MRC Inc., Cincinnati, Ohio). […] Briefly, 30 μg of RNA was subjected to electrophoresis in 1% agarose formaldehyde gel. The gel was then transferred via capillary action onto a nylon membrane (Zeta Probe, Bio-Rad Laboratories, Melville, N.Y.). The membrane was hybridized with [^32 P]-dCTP-labeled iNOS CDNA (4 kb SmaI fragment), a kind gift from Dr. James Cunningham (Harvard Medical School, Boston, Mass.). After hybridization, the blot was exposed to Kodak X-ray film (Kodak, Rochester, N.Y.) for 24-48 h with intensifying screens at -70° C. The β-actin probe was purchased from ClonTech (Palo Alto, Calif.) and probed as described above. Quantitation of the intensity of the iNOS/β-actin bands was performed using a phosphoimager (Molecular Dynamics, Sunnyvale, Calif.).

[8] = test system: iNOS; conditions: in vitro; Amin et al. 1995b; cited from earlier work
[9] = test system: iNOS expression in mesangial cells; conditions: Pfeilschifter et al. (1995); cited from earlier work
[10] = test system: NOS; conditions: competitive inhibitor; cited from earlier work

CC1(O)c2cccc(O)c2C(=O)C2=C(O)C3(O)C(=O)C(C(N)=O)=C(O)CC3CC21 (centres unmarked) [CMT-1, 4-dedimethylaminotetracycline]
NO production (% of control) ([1]; 10 μg/mL, after 48 hr): ~ 60 % of control | anti-collagenase activity [2]: modest anti-collagenase activity

TGF-β1: suppresses iNOS expression in macrophages
suppression of iNOS expression [3]: suppress iNOS expression by decreasing mRNA expression

C[C@]12CCC(=O)C=C1CC[C@@H]1[C@@H]2[C@@H](O)C[C@@]2(C)[C@H]1CC[C@]2(O)C(=O)CO [hydrocortisone]
inhibition of iNOS activity ([4]; 10 μM): 60% | inhibition of iNOS protein expression [5]: 43% | inhibition at 10 µM [6]: 50 to 100% | inhibition at 10 µM ([7]; read-out: inhibition of iNOS mRNA expression, 10 μM, doxycycline experiment (FIG. 6C)): 73% | inhibition at 10 µM ([7]; read-out: inhibition of iNOS mRNA expression, 10 μM, minocycline experiment (FIG. 6D)): 76% | suppression of iNOS expression [3]: suppress iNOS expression by decreasing mRNA expression

C[C@H]1c2cccc(O)c2C(O)=C2C(=O)[C@]3(O)C(O)=C(C(N)=O)C(=O)C[C@@H]3[C@@H](O)[C@@H]21 [CMT-8, 6-α-deoxy-5-hydroxy-4-dedimethylaminotetracycline]
inhibition of NO production, time course [1]: time-dependent inhibition of NO production | Emax at 5 µg/mL [1]: > 80% | anti-collagenase activity [2]: high level of anti-collagenase activity

NC(=O)C1=C(O)C2(O)C(=O)C3=C(O)c4c(O)cccc4CC3CC2CC1=O (centres unmarked) [CMT-3, 6-demethyl-6-deoxy-4-dedimethylaminotetracycline]
inhibition of NO production, time course [1]: time-dependent inhibition of NO production | Emax at 5 µg/mL [1]: > 80% | anti-collagenase activity [2]: high level of anti-collagenase activity

CC(=O)Oc1ccccc1C(=O)O [aspirin]
inhibition of iNOS catalytic activity [8]: inhibit iNOS catalytic activity in vitro

CC(=O)n1ccnc1 [N-acetyl imidazole, N-acetylimidazole]
inhibition of iNOS catalytic activity [8]: inhibit iNOS catalytic activity in vitro

C[C@@H]1C[C@H]2[C@@H]3CCC4=CC(=O)C=C[C@]4(C)[C@@]3(F)[C@@H](O)C[C@]2(C)[C@@]1(O)C(=O)CO [dexamethasone]
suppression of IL-1β-induced iNOS expression [9]: acts at multiple levels (including transcription of iNOS) to suppress IL-1β-induced iNOS expression

CN=C(N)NCCC[C@H](N)C(=O)O [L-NMMA]
inhibition of iNOS activity ([4]; 75 μM): 64% | inhibition of NOS activity [10]: > 95%
